Measurements taken from patent US12169166B2, “Fluorogenic cyanine compounds for detecting nucleic acids” (AAT Bioquest, Inc., priority 2021, dated 2024).
Entries after “also recorded” stand apart in the source; their conditions may differ.

Legend:
[1] = system: HeLa cells; experiment: Cellular nucleic acid staining of live and fixed cells; format: cell-based; conditions: dye 1 μg/ml in PBS, live or fixed HeLa cells, 30 min, fluorescence microscope (FIG. 6)
Description: A cyanine dye (1 μg/ml) in PBS buffer is incubated with live or fixed HeLa cells in 96-well plate for 30 min respectively. The fluorescence image of cells is taken with a fluorescence microscope.
A cyanine dye (1 μg/ml) in PBS buffer (prepared from 1 mM DMSO stock solution) is incubated with live and fixed HeLa cells in 96-well plate for 30 min respectively.

[2] = system: pGL3 Control vector (Promega) DNA; experiment: Pre-cast DNA gel staining; format: binding; conditions: 0.9% agarose, dye 1 μg/ml; for amount of DNA clearly detected per lane, pre-cast gel staining: 300 nm UV transilluminator (FIG. 4); for sensitivity for detecting DNA on gel compared with TO, pre-cast gel staining: same conditions as TO
Description: (§1) FIGS. 4A-4B show a representation of pre-cast DNA gel staining with Compound 5 versus Thiazole Orange. Serial dilutions of a DNA sample (86, 43, 21.5, 10.7, 5.3, 2.6, 1.3, 0.5 ng/lane) are detected with Thiazole Orange or Compound 5. Compound 5 can clearly detect 5.3 ng DNA while TO can only detect 43 ng.
An agarose gel solution (0.9% agarose) is prepared following a standard protocol (J. Roskams et al., Lab Ref A Handbook of Recipes, Reagents, and Other Reference Tools for Use at the Bench, Cold Spring Harbor Laboratory Press, Cold Spring Harbor, N.Y., 2002). A stock solution of a cyanine dye in DMSO is prepared. An aliquot of the stock solution of dye is added to the gel solution, while it is hot, resulting in an effective working concentration of the dye (1 μg/ml). The resulting solution is thoroughly mixed by swirling. The resulting gel solution is poured onto a gel slab to cast the gel. Serial two-fold dilutions of pGL3 Control vector (Promega) are made and the resulting DNA samples are loaded onto the gel in eight lanes from left to right with a loading of 86, 43, 21.5, 10.7, 5.3, 2.6, 1.3, 0.5 ng/lane, respectively. The DNA samples are electrophoretically separated in 1×TAE buffer using a standard protocol. The resulting gel is then viewed using a UV transilluminator with 300 nm excitation. Photographs of the illuminated gels are taken with an EB filter.

[3] = system: pGL3 Control vector (Promega) DNA; experiment: Post-DNA gel staining; format: binding; conditions: 0.9% agarose, dye 1 ug/ml, same conditions as TO
Description: as §1, with “FIGS. 5A-5B” for “FIGS. 4A-4B”, “of post-DNA” for “of pre-cast DNA”, “detect 1.3” for “detect 5.3”, “detect 21.5” for “detect 43”
Agarose gels (0.9% agarose) are prepared following a standard protocol (J. Roskams et al., Lab Ref A Handbook of Recipes, Reagents, and Other Reverence Tools for Use at the Bench, Cold Spring Harbor Laboratory Press, Cold Spring Harbor, N.Y., 2002). Serial two-fold dilutions of pGL3 Control vector (Promega) are made and the resulting DNA samples are loaded onto an agarose gel in eight lanes from left to right with a loading of 86, 43, 21.5, 10.7, 5.3, 2.6, 1.3, 0.5 ng/lane, respectively. The DNA samples are electrophoretically separated in 1×TAE buffer using a standard protocol. A stock solution of a cyanine dye in DMSO at about 12 mM concentration is prepared. The stock solution of dye is diluted using an appropriate aqueous solvent to provide a staining solution with an appropriate effective working concentration of the dye (1 ug/ml). The agarose gel is submerged in the staining solution for approximately 30 minutes to stain the gel. The resulting gel is then viewed using a UV transilluminator with 300 nm excitation. […]

[4] = system: Calf thymus DNA; experiment: Fluorescence emission spectra in the presence or absence of DNA; format: binding; conditions: dye 5 ug/ml, DNA 3 ug/ml, Tris Buffer pH=8.0 (FIG. 2)
Description: Absorption and fluorescence spectra of cyanine compounds are measured in the presence or absence of DNA in Tris buffer (pH=8.0). […]

[5] = system: HeLa cells; experiment: Cellular cytotoxicity (cell viability, WST kit); format: cell-based; conditions: 0-100 ug/mL dye, 24 hours (FIG. 7)
Description: HeLa cells are plated in a 96-well plate (100 μL volume). Next day, to each 100 ul of cells is added 100 ul cyanine solution to make a series of cell samples with the final cyanine dye concentrations of 0, 0.31, 0.62, 1.6, 3.12, 6.25, 12.5, 25, 50, 100 ug/mL respectively. The cell viabilities are measured and plotted for each sample.
HeLa cells are plated in a 96-well plate (100 μL volume). Next day, to each 100 ul of cells is added 100 ul cyanine solution to make a serial cell samples with the final cyanine dye concentrations of 0, 0.31, 0.62, 1.6, 3.12, 6.25, 12.5, 25, 50, 100 ug/mL respectively (total volume is 200 μL for each sample), The cells are incubated in the cyanine-containing media for 24 hours. The cell viabilities are measured with Cell Meter™ Colorimetric WST-5′ Cell Quantification Kit (AAT Bioquest) according to the product instruction.

[6] = system: S. typhimurium; experiment: Mutagenicity test with S9 liver extract, colony count; format: cell-based; conditions: 0.2, 1 and 5 ug/plate, 48 hours at 37° C. (FIG. 8)
Description: Mutagenicity tests are performed as described in Example 23.
Tubes of top agar are liquified and cooled to 55-60° C. 0.3 mL of histidine/biotin stock (Presque Isle Cultures) is added alongside 20 uL of S9 liver extract. (Sigma). To the top agar tubes 0.1 mL of S. typhimurium (Grown overnight at 37° C. in TSB culture) is added with 1 mL serological pipette. The mixture is thoroughly mixed by vortexing at low speed. The culture mixture is poured into the plates of the glucose-minimal salts agar plates. With the sterile loops, a disk on its edge is placed near the center of the plate. A serial concentrations of cyanine compounds (0.2, 1 and 5 ug/plate) are added to saturate the disk with a sterile Pasteur pipette. Sterile water is used with the same volume as a negative control. The plates are incubated for 48 hours at 37° C., and the colonies are counted near the disk.

[7] = system: Calf thymus DNA; experiment: DNA responses in solution (fluorescence vs DNA concentration); format: binding; conditions: Tris Buffer pH=8.0, serial DNA dilutions, microtiter plate reader (FIG. 3)
Description: The fluorescence intensities of Compound 5 are measured in the presence of serial dilutions of a DNA sample (0, 3.12, 6.25, 12.5, 25, 50, 100, 1000 ng/ml).
The fluorescence of a cyanine compound in 100 μL of Tris Buffer (pH=8.0) are measured in the presence of 0, 0.21, 0.62, 1.85, 5.6, 16.7, and 50 μg/ml final concentrations of Calf thymus DNA with a microtiter plate reader. The fluorescence is plotted against DNA concentration.

Row | SMILES | live cell permeability [1] | amount of DNA clearly detected per lane, pre-cast gel staining [2] | sensitivity for detecting DNA on gel compared with TO, post-gel staining [3] | fluorescence enhancement in the presence vs absence of DNA, compared with TO [4] | cell toxicity compared with SYBR Green [5] | mutagenicity compared with SYBR Green [6] | fluorescence signal in response to increasing DNA concentrations, compared with TO [7] | sensitivity for detecting DNA on gel compared with TO, pre-cast gel staining [2]
1 | CN1/C(=C/c2cc[n+](C)c3ccccc23)Sc2ccccc21 [TO, Thiazole Orange, reference compound] | can readily penetrate the cells | 43 ng |  |  |  |  |  | 
2 | CC(=O)NCCCCN1C(c2ccccc2)=C/C(=C\c2sc3ccccc3[n+]2CCCCNC(C)=O)c2ccccc21 [Compound 6] | cell impermeability |  | significantly higher sensitivity for detecting DNA on gel than TO; also recorded: much higher sensitivity for detecting DNA on gel than TO | stronger fluorescence enhancements than TO | lower cell toxicity compared to SYBR Green; also recorded: much lower cell toxicity than SYBR Green | significantly lower mutagenicity than SYBR Green; also recorded: much lower mutagenicity than SYBR Green | stronger fluorescence signals than TO | significantly higher sensitivity for detecting DNA on a gel than TO; also recorded: much higher sensitivity for detecting DNA on gel than TO
3 | OCCCCN1C(c2ccccc2)=C/C(=C\c2sc3ccccc3[n+]2CCCCO)c2ccccc21 [Compound 4] | cell impermeability |  | significantly higher sensitivity for detecting DNA on gel than TO; also recorded: much higher sensitivity for detecting DNA on gel than TO | stronger fluorescence enhancements than TO | lower cell toxicity compared to SYBR Green; also recorded: much lower cell toxicity than SYBR Green | significantly lower mutagenicity than SYBR Green; also recorded: much lower mutagenicity than SYBR Green | stronger fluorescence signals than TO; also recorded: linearly responded to the DNA concentrations with better sensitivity than TO | significantly higher sensitivity for detecting DNA on a gel than TO; also recorded: much higher sensitivity for detecting DNA on gel than TO
4 | NCCCCN1C(c2ccccc2)=C/C(=C\c2sc3ccccc3[n+]2CCCCN)c2ccccc21 [Compound 5] | live cell impermeant | 5.3 ng |  | stronger fluorescence enhancements than TO | significantly lower cell toxicity than SYBR Green; also recorded: much lower cell toxicity than SYBR Green | significantly lower mutagenicity than SYBR Green; also recorded: much low mutagenicity than SYBR Green | significantly higher fluorescence signals than Thiazole orange (TO); also recorded: stronger fluorescence signals than TO | 
